This assay concerns 565726-208-R1-J5-PDC complex spheroids, growth inhibition. Put plainly: Anticancer human tumor 565726-208-R1-J5-PDC patient-derived pancreatic adenocarcinoma cell line growth inhibition [RAS]. Particulars: for viability, T/C: stronger effect = lower value. The procedure, abridged: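 Multi-cell-type spheroids: tumor cells plus HUVEC endothelial cells and mesenchymal stem cells. RAS-pathway inhibitors were combined with targeted agents, each dosed in half-log steps down from clinical Cmax, or from 10 microM when Cmax was unknown.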

Setting [1] is: curve of first compound, second compound 0.000949 µM.
The mark [2] stands for this setting: curve of first compound, second compound 0.003 µM.
Setting [3] is: curve of first compound, second compound 0.00949 µM.
Setting [4] is: curve of first compound, second compound 0.03 µM.
Setting [5] is: curve of first compound, second compound 0.0949 µM.
The mark [6] stands for this setting: curve of first compound, second compound 0.3 µM.
Setting [7] is: second compound 0.000949 µM, first compound 0.0316 µM.
Where [8] appears, read: second compound 0.000949 µM, first compound 0.1 µM.
[9] abbreviates: second compound 0.000949 µM, first compound 0.316 µM.
[10] abbreviates: second compound 0.000949 µM, first compound 1 µM.
Where [11] appears, read: second compound 0.000949 µM, first compound 3.16 µM.
[12] abbreviates: second compound 0.000949 µM, first compound 10 µM.
Where [13] appears, read: second compound 0.003 µM, first compound 0.0316 µM.
Setting [14] is: second compound 0.003 µM, first compound 0.1 µM.
Setting [15] is: second compound 0.003 µM, first compound 0.316 µM.
The mark [16] stands for this setting: second compound 0.003 µM, first compound 1 µM.
Where [17] appears, read: second compound 0.003 µM, first compound 3.16 µM.
Where [18] appears, read: second compound 0.003 µM, first compound 10 µM.
[19] abbreviates: second compound 0.00949 µM, first compound 0.0316 µM.
The mark [20] stands for this setting: second compound 0.00949 µM, first compound 0.1 µM.
[21] abbreviates: second compound 0.00949 µM, first compound 0.316 µM.
Setting [22] is: second compound 0.00949 µM, first compound 1 µM.
Where [23] appears, read: second compound 0.00949 µM, first compound 3.16 µM.
Setting [24] is: second compound 0.00949 µM, first compound 10 µM.
Where [25] appears, read: second compound 0.03 µM, first compound 0.0316 µM.
The mark [26] stands for this setting: second compound 0.03 µM, first compound 0.1 µM.
[27] abbreviates: second compound 0.03 µM, first compound 0.316 µM.
The mark [28] stands for this setting: second compound 0.03 µM, first compound 1 µM.
Setting [29] is: second compound 0.03 µM, first compound 3.16 µM.
[30] abbreviates: second compound 0.03 µM, first compound 10 µM.
Setting [31] is: second compound 0.0949 µM, first compound 0.0316 µM.
Setting [32] is: second compound 0.0949 µM, first compound 0.1 µM.
Setting [33] is: second compound 0.0949 µM, first compound 0.316 µM.
[34] abbreviates: second compound 0.0949 µM, first compound 1 µM.
[35] abbreviates: second compound 0.0949 µM, first compound 3.16 µM.
Where [36] appears, read: second compound 0.0949 µM, first compound 10 µM.
Where [37] appears, read: second compound 0.3 µM, first compound 0.0316 µM.
[38] abbreviates: second compound 0.3 µM, first compound 0.1 µM.
The mark [39] stands for this setting: second compound 0.3 µM, first compound 0.316 µM.
[40] abbreviates: second compound 0.3 µM, first compound 1 µM.
Setting [41] is: second compound 0.3 µM, first compound 3.16 µM.
Setting [42] is: second compound 0.3 µM, first compound 10 µM.

SMILES strings stand for the structures. Several values for one entry are separate records, joined by “and”; a condition that tells them apart may be missing. Identical values can stand only once.

Usually IC50 stands for the concentration that inhibits the measured activity by half. As usually defined, the viability, T/C is the ratio of treated to control.
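Also: spheroids exposed to compounds for seven days before readout.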
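For viability, T/C in this document: 100% = DMSO vehicle control viability.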

As to `Cc1nc(N2CCC3(CC2)COC(C)C3N)c(CO)nc1Sc1ccnc(N)c1Cl` (stereo unspecified) + CCn1c(-c2cc(N3CCN(C)CC3)cnc2C(C)OC)c2c3cc(ccc31)-c1csc(n1)CC(NC(=O)C1CC1C)C(=O)N1CCCC(N1)C(=O)OCC(C)(C)C2, the IC50 by setting is: under setting [1], 204 nM; under setting [2], 38.7 nM; under setting [3], less than 31.6 nM; under setting [4], less than 31.6 nM; under setting [5], less than 31.6 nM; under setting [6], less than 31.6 nM. The viability, T/C runs as follows: under setting [7], 63.1%; under setting [8], 53.6%; under setting [9], 48.3%; under setting [10], 39.5%; under setting [11], 33%; under setting [12], 28%. Also, the viability, T/C is 51.3% under setting [13]; 43.4% under setting [14]; 34.3% under setting [15]; 27.6% under setting [16]; 29.1% under setting [17]; 22% under setting [18]. For the same compound, the viability, T/C is 40.5% under setting [19]; 34.8% under setting [20]; 26.1% under setting [21]; 22.2% under setting [22]; 20.9% under setting [23]; 17.1% under setting [24]. Moreover, the viability, T/C runs as follows: under setting [25], 29.1%; under setting [26], 28.4%; under setting [27], 22.2%; under setting [28], 18%; under setting [29], 19.8%; under setting [30], 16.9%. Moreover, the viability, T/C runs as follows: under setting [31], 22.9%; under setting [32], 21.2%; under setting [33], 20.1%; under setting [34], 15.9%; under setting [35], 18.3%; under setting [36], 17.2%. Also, the viability, T/C reads like this: under setting [37], 24.4%; under setting [38], 20%; under setting [39], 17%; under setting [40], 13.8%; under setting [41], 16.2%; under setting [42], 15.5%.

In the case of `CC(=O)OC12COC1CC(O)C1(C)C(=O)C(O)C3=C(C)C(OC(=O)C(O)C(NC(=O)OC(C)(C)C)c4ccccc4)CC(O)(C(OC(=O)c4ccccc4)C21)C3(C)C` (stereo unspecified) + CCn1c(-c2cccnc2C(C)OC)c2c3cc(ccc31)N1CCOC(CC(NC(=O)C(C(C)C)N(C)C(=O)C3(F)CCN(C(=O)C#CC(C)(C)N(C)C)CC3)C(=O)N3CCCC(N3)C(=O)OCC(C)(C)C2)C1, the half-maximal inhibitory concentration (IC50) runs as follows: under setting [1], less than 31.6 nM; under setting [2], less than 31.6 nM; under setting [3], less than 31.6 nM; under setting [4], less than 31.6 nM; under setting [5], less than 31.6 nM; under setting [6], less than 31.6 nM. In addition, the viability, T/C reads like this: under setting [7], 15.9%; under setting [8], 14.2%; under setting [9], 15.5%; under setting [10], 16.5%; under setting [11], 19.8%; under setting [12], 21.5%. The viability, T/C under setting [13] is 17.4%; the viability, T/C under setting [14] is 16.5%; the viability, T/C under setting [15] is 16.2%; the viability, T/C under setting [16] is 14.6%; the viability, T/C under setting [17] was 19.8%; the viability, T/C under setting [18] is 22.8%. Further, the viability, T/C was 17.3% under setting [19]; 15.3% under setting [20]; 15.9% under setting [21]; 15.7% under setting [22]; 20.1% under setting [23]; 22.8% under setting [24]. The viability, T/C runs as follows: under setting [25], 16.3%; under setting [26], 16.2%; under setting [27], 15%; under setting [28], 17%; under setting [29], 21.6%; under setting [30], 25.4%. The viability, T/C is 15.3% under setting [31]; 14.8% under setting [32]; 13.2% under setting [33]; 15.3% under setting [34]; 20.2% under setting [35]; 24.3% under setting [36]. The viability, T/C is 14.9% under setting [37]; 15.8% under setting [38]; 14.4% under setting [39]; 13.9% under setting [40]; 17.6% under setting [41]; 26.2% under setting [42].

For the compound `CCN1CCN(Cc2ccc(Nc3ncc(F)c(-c4cc(F)c5nc(C)n(C(C)C)c5c4)n3)nc2)CC1` + CCn1c(-c2cc(N3CCN(C)CC3)cnc2C(C)OC)c2c3cc(ccc31)-c1csc(n1)CC(NC(=O)C1CC1C)C(=O)N1CCCC(N1)C(=O)OCC(C)(C)C2, the IC50 by setting is: under setting [1], 72.8 nM; under setting [2], less than 3.16 nM; under setting [3], less than 3.16 nM; under setting [4], less than 3.16 nM; under setting [5], less than 3.16 nM; under setting [6], less than 3.16 nM. The viability, T/C is 57.7% (second compound 0.000949 µM, first compound 0.00316 µM); 57.9% (second compound 0.000949 µM, first compound 0.01 µM); 57% under setting [7]; 47.2% under setting [8]; 35.4% under setting [9]; 31.6% under setting [10]. Moreover, the viability, T/C was 51.7% (second compound 0.003 µM, first compound 0.00316 µM); 41.4% (second compound 0.003 µM, first compound 0.01 µM); 51.7% under setting [13]; 35.5% under setting [14]; 35% under setting [15]; 23.9% under setting [16]. The viability, T/C reads like this: (second compound 0.00949 µM, first compound 0.00316 µM) 41.4%; (second compound 0.00949 µM, first compound 0.01 µM) 41.4%; under setting [19], 31.1%; under setting [20], 32.4%; under setting [21], 22.3%; under setting [22], 18.8%. For the same compound, the viability, T/C was 33.2% (second compound 0.03 µM, first compound 0.00316 µM); 29.2% (second compound 0.03 µM, first compound 0.01 µM); 28.4% under setting [25]; 25.5% under setting [26]; 22.7% under setting [27]; 18.8% under setting [28]. For the same compound, the viability, T/C runs as follows: (second compound 0.0949 µM, first compound 0.00316 µM) 25.1%; (second compound 0.0949 µM, first compound 0.01 µM) 23.8%; under setting [31], 22%; under setting [32], 21.1%; under setting [33], 19.4%; under setting [34], 15.7%. Also, the viability, T/C is 24.1% (second compound 0.3 µM, first compound 0.00316 µM); 23.3% (second compound 0.3 µM, first compound 0.01 µM); 20.1% under setting [37]; 18.8% under setting [38]; 18% under setting [39]; 15.6% under setting [40].

In the case of `CC(=O)OC12COC1CC(O)C1(C)C(=O)C(O)C3=C(C)C(OC(=O)C(O)C(NC(=O)OC(C)(C)C)c4ccccc4)CC(O)(C(OC(=O)c4ccccc4)C21)C3(C)C` (stereo unspecified), the viability, T/C was 20.4% [middle of 4 runs] (compound 0.0316 µM); 20.9% [middle of 4 runs] (compound 0.1 µM); 19.3% [middle of 4 runs] (compound 0.316 µM); 19.9% [middle of 4 runs] (compound 1 µM); 24.2% [middle of 4 runs] (compound 3.16 µM); 27% [middle of 4 runs] (compound 10 µM). The half-maximal inhibitory concentration (IC50) (curve of compound) was less than 31.6 nM.

As to `CC(Nc1ccc2c(c1)OCCn1cc(N3C(=O)OCC3C(F)F)nc1-2)C(N)=O` (stereo unspecified), the viability, T/C by setting is: (compound 0.0316 µM) 94.9% [middle of 4 runs]; (compound 0.316 µM) 79.3% [middle of 4 runs]; (compound 1 µM) 72% [middle of 4 runs]. Further, the IC50 (curve of compound) was > 10000 nM and 9950 nM.

In the case of `CC(C)NCC(C(=O)N1CCN(c2ncnc3c2C(C)CC3O)CC1)c1ccc(Cl)cc1` (stereo unspecified), the viability, T/C is 97.9% [middle of 4 runs] (compound 0.0316 µM), 100% [middle of 4 runs] (compound 0.1 µM) and 88.7% [middle of 4 runs] (compound 1 µM). For the same compound, the half-maximal inhibitory concentration (IC50) (curve of compound) is greater than 10000 nM.

Values taken from PubChem BioAssay AID2060899 (Molecular Pharmacology Branch, DTP, NCI, 2025).
